Test results: US5521156A, “Cyclic neurokinin A antagonists” (priority 1994, dated 1996)
Where a SMILES comes first, the peptide text is derived from it. [ ]: non-standard residue; d: D form.

What was measured:
mice = settings: mouse, in vivo
Description: The analgesic potential of the compounds of this invention was measured using a modification of the method of Whittle (Br. J. Pharmacol. 22:2246, 1964). Groups of 5-10 male mice received an intrathecal injection of cyclo[Tyr-trp-Leu-Arg-Trp-Gly] SEQ. ID 6 (0.013-4μg) or ethanol/saline vehicle in a volume of 5 μl. After 5 minutes, mice received an intraperitoneal injection of 0.4 ml acetic acid (0.25% v/v). […] To calculate an ED50 (dose producing analgesia in 50% of the mice), four or more doses of compound were tested and the results subjected to quantal analysis with an appropriate computer program.

[1] = biological target: T1, human jejunal NK-2 receptor (Homo sapiens, UniProt P21452); experiment: NK-2 receptor binding (125I-neurokinin A) in HSKR-1 cell membranes; settings: HSKR-1 cells (mouse 3T3 fibroblasts expressing human jejunal NK-2 receptor); 0.1 nM 125I-iodohistidyl-1-neurokinin A; mean ± S.E.M.
T1 construct: expressed in transfected cells; host or cells: HSKR-1 (mouse 3T3 fibroblasts)
T1 sequence (P21452 1-398): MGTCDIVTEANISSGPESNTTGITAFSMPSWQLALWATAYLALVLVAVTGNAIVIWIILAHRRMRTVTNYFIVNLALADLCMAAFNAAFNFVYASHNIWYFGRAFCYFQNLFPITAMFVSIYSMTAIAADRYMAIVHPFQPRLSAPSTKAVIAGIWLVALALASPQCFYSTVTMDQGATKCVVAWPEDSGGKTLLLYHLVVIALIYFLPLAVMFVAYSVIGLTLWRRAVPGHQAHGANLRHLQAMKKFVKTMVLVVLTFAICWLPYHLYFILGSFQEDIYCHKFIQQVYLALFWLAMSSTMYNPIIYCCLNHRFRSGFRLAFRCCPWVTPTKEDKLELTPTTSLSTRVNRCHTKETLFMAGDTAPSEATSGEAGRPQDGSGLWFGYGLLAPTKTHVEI
Description: Receptor binding assays were performed in crude tissue membranes. The NK-1 receptor binding affinity of proposed tachykinin antagonists was evaluated in guinea pig lungs (Keystone Biologicals, Cleveland, OH, kept frozen at -80° C. until use). Affinity for the NK-2 receptor was evaluated in HSKR-1 cells which are mouse 3T3 fibroblasts expressing the human jejunal NK-2 receptor. Tissues or cells were homogenized with a Polytron in 15 volumes of 50 mM Tris-HCl buffer (pH 7.4, 4° C.) containing 120 mM NaCl and 5 mM KCl and centrifuged at 48,000×g for 12 min. at 4° C. The pellet was resuspended in 15 volumes of 50 mM Tris-HCl buffer containing 10 mM EDTA and 300 mM KCl then set on ice for 30 min. The suspension was cetrifuged as above and the pellet washed by resuspension and cetrifugation two additional times in 50 mM Tris-HCl buffer (pH 7.4, 4° C.). The final pellet was resuspended in a concentration of 20 mg/ml in incubation buffer then kept at room temperature for at least 15 min prior to use. Receptor binding was initiated by addition of 250 μl membrane preparation (final protein concentration; lungs=286 μg/tube, HSKR-1 cells=100 μg/tube) in duplicate to 0.1 nM of the following radioligands: for NK-1 receptor assays, ^125 I-Bolton-Hunter Lys-3 labeled substance P (New England Nuclear, specific activity, 2200 Ci/mmol); for NK-2 receptor assays, ^125 iodohistidyl-1-neurokinin A (Amersham, specific activity, 2000 Ci/mmol) in a final volume of 500 μl of buffer containing 50 mM Tris-HCl (pH 7.4 at room temperature), 0.1% bovine serum albumin, 2 mM MnCl2, 40 μg/ml bacitracin, 4 μg/ml leupeptin and chymostatin, 1 μM thiorphan and various doses of the tachykinin antagonists. Incubations were performed at room temperature for 90 min (NK-1 receptor assays) or 2 hr (NK-2 receptor assays); binding was terminated by addition of 50 mM Tris-HCl buffer (pH 7.4, 4° C.) and filtration under vacuum through GF/B filters presoaked with 0.1% polyethyleneimine (NK-1 receptor assays) or 0.5% bovine serum albumin (NK-2 receptor assays). Nonspecific binding was defined as binding in the presence of 1 μM substance P (NK-1 receptor assays) or neurokinin A (NK-2 receptor assays) (Peptides International, Inc., Louisville, Ky.). Specific binding was calculated by subtracting nonspecific binding from total binding and corresponded to 70-90% of total binding. Data were analyzed and IC50 values generated by nonlinear regression using an iterative curve fitting program (GraphPAD Inplot, San Diego, Calif.). Protein was determined by the method of Lowry.

For `CC(C)C[C@@H]1NC(=O)[C@@H](Cc2c[nH]c3ccccc23)NC(=O)[C@H](Cc2ccc(O)cc2)NC(=O)CNC(=O)[C@H](Cc2c[nH]c3ccccc23)NC(=O)[C@H](CCCNC(=N)N)NC1=O` [cyclo[Tyr--trp--Leu--Arg--Trp--Gly], cyclo[Tyr-trp-Leu-Arg-Trp-Gly]] (cyclo(GY[dW]LRW)), the “ED50 (dose producing analgesia in 50% of the mice)” value (mice) was 0.18 µg and the IC50 [1] was 6.79 ± 0.69 nM.
